# In ChEMBL document CHEMBL2417377, “Hit-to-lead optimization and kinase selectivity of imidazo[1,2-a]quinoxalin-4-amine derived JNK1 inhibitors” (Bioorg Med Chem Lett, 2013):
# Key:
# [1] = target: T1, Serine/threonine-protein kinase TAO2 (Homo sapiens) (UniProt Q9UL54); assay: Inhibition of TAO2 in human PC3 cell lysates at 30 uM using desthiobiotin-tagged ATP probe AX9989 followed by trypsinization by LC/MS analysis; conditions: PC-3
# T1 sequence (whole entry): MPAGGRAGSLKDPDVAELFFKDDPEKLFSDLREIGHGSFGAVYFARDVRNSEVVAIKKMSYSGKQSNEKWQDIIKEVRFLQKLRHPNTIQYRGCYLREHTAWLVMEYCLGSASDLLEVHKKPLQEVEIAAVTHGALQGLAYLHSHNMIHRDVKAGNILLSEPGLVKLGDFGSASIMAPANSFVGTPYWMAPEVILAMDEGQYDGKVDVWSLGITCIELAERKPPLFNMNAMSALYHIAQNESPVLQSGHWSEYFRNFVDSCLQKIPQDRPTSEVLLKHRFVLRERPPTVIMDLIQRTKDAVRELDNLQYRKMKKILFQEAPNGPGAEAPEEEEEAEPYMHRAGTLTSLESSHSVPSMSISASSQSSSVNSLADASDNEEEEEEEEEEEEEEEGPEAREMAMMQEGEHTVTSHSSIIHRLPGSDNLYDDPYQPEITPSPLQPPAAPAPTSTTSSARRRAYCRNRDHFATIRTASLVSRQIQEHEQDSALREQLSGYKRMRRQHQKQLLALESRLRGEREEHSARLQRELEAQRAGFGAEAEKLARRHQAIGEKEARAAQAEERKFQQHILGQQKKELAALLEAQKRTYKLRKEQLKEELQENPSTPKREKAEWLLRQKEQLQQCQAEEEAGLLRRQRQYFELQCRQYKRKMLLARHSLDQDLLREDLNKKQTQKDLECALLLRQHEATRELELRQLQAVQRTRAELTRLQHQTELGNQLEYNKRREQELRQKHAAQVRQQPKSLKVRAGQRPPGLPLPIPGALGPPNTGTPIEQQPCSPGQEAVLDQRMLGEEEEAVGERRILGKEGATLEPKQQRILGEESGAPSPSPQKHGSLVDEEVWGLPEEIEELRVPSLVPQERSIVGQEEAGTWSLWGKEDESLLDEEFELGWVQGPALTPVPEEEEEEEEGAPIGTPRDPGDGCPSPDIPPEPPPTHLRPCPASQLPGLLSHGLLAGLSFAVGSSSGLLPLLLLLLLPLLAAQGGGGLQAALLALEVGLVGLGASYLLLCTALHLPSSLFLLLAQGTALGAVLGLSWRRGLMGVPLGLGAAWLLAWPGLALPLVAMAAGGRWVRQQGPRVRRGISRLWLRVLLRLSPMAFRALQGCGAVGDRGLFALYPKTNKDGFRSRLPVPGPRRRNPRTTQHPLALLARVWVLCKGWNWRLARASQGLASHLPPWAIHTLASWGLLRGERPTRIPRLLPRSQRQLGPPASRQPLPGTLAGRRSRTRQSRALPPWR
# [2] = target: T2, Eukaryotic translation initiation factor 2-alpha kinase 3 (Homo sapiens) (UniProt Q9NZJ5); assay: Inhibition of PEK in human PC3 cell lysates at 30 uM using desthiobiotin-tagged ATP probe AX9989 followed by trypsinization by LC/MS analysis; conditions: PC-3
# T2 sequence (whole entry): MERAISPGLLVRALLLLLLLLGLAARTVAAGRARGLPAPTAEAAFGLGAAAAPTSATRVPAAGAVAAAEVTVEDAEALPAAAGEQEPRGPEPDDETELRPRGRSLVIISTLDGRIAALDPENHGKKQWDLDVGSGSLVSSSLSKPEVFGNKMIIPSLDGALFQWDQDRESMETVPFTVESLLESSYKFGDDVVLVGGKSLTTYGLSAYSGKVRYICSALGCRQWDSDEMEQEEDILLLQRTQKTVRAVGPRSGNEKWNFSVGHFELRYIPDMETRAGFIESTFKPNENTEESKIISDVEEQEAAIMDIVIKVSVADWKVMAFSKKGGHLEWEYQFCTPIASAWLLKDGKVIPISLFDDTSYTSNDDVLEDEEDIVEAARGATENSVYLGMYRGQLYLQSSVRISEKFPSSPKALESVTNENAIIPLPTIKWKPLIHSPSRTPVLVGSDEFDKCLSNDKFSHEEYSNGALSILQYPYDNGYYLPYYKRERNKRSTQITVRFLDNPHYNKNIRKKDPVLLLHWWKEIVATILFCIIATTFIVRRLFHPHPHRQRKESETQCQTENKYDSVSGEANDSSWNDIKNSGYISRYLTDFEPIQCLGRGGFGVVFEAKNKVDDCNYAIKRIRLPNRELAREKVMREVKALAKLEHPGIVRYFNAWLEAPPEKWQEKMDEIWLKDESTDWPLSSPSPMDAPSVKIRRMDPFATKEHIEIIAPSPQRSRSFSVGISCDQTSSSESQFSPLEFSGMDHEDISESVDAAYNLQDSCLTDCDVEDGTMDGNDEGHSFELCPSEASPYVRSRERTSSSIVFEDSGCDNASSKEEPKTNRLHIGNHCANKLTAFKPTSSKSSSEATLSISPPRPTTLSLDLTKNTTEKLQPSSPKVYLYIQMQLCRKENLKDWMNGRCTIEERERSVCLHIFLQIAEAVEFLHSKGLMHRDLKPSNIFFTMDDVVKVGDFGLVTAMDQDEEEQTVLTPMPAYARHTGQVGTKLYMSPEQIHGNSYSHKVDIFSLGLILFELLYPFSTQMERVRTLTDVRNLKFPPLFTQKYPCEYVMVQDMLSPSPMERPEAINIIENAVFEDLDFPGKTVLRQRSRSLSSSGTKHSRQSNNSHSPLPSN
# [3] = target: c-Jun N-terminal kinase, JNK (Homo sapiens) (UniProt P45983+P53779+P45984); assay: Inhibition of JNK1/JNK2/JNK3 in human PC3 cell lysates at 30 uM using desthiobiotin-tagged ATP probe AX9989 followed by trypsinization by LC/MS analysis; format: protein assay; conditions: PC-3
# [4] = target: Microtubule-associated serine/threonine-protein kinase 4 (Homo sapiens) (UniProt O15021); assay: Inhibition of MAST4 in human HuH7 cell lysates at 10 uM; conditions: Huh-7
# [5] = target: Ephrin type-A receptor 7 (Homo sapiens) (UniProt Q15375); assay: Inhibition of EphA7 in human PC3 cell lysates at 10 uM using desthiobiotin-tagged ATP probe AX9989 followed by trypsinization by LC/MS analysis; conditions: PC-3
# [6] = target: Mitogen-activated protein kinase 9 (Homo sapiens, UniProt P45984); assay: Inhibition of JNK2 in human Jurkat cell lysates using desthiobiotin-tagged ATP probe AX9989 followed by trypsinization by LC/MS analysis
# [7] = target: T3, Microtubule-associated serine/threonine-protein kinase 3 (Homo sapiens, UniProt O60307); assay: Inhibition of MAST3 in human HuH7 cell lysates at 10 uM; conditions: Huh-7
# [8] = target: T3, Microtubule-associated serine/threonine-protein kinase 3; assay: Inhibition of MAST3 in human HuH7 cell lysates; set-up: species or system Huh-7
# [9] = target: Serine/threonine-protein kinase 25 (Homo sapiens) (UniProt O00506); assay: Inhibition of YSK1 in human PC3 cell lysates at 10 uM using desthiobiotin-tagged ATP probe AX9989 followed by trypsinization by LC/MS analysis; conditions: PC-3
# Serine/threonine-protein kinase 25 (Homo sapiens), sequence (O00506 whole entry, looked up): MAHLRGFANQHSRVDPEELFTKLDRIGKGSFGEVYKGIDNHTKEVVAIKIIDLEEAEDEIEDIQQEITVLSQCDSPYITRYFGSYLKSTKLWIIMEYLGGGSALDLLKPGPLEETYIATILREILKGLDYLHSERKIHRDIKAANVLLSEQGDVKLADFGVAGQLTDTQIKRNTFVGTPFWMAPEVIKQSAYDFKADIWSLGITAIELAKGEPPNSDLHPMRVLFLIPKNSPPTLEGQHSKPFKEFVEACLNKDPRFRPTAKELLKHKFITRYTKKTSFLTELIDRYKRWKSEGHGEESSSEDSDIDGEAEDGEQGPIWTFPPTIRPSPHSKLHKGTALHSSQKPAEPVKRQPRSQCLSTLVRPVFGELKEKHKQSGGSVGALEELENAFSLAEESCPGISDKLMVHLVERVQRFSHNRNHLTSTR
# Ephrin type-A receptor 7 (Homo sapiens), sequence (Q15375 28-998 limits assumed): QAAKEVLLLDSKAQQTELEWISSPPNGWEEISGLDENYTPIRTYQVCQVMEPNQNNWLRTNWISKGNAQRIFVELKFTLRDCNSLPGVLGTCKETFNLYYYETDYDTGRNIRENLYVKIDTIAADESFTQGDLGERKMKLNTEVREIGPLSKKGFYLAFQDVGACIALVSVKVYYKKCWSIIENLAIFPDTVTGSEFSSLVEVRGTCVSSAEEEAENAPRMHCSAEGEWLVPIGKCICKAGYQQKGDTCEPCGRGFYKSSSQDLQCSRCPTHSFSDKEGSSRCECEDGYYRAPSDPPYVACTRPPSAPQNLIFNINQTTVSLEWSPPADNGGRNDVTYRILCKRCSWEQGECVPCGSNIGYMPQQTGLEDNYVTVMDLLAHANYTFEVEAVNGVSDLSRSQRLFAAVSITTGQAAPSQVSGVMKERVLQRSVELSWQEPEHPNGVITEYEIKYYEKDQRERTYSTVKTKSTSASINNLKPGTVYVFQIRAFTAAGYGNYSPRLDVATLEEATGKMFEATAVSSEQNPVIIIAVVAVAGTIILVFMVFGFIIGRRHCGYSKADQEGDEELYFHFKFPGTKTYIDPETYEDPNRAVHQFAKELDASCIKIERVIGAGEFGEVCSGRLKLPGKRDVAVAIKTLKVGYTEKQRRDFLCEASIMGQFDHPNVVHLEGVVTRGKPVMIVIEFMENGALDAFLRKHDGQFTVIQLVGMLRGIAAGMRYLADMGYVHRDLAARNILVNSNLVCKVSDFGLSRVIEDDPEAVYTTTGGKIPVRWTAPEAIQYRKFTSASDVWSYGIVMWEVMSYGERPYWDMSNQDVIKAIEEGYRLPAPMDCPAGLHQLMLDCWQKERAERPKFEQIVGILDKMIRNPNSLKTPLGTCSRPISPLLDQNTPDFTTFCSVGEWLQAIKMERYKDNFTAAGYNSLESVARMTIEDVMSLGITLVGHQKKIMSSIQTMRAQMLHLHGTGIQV
# Microtubule-associated serine/threonine-protein kinase 4 (Homo sapiens), sequence (O15021 whole entry): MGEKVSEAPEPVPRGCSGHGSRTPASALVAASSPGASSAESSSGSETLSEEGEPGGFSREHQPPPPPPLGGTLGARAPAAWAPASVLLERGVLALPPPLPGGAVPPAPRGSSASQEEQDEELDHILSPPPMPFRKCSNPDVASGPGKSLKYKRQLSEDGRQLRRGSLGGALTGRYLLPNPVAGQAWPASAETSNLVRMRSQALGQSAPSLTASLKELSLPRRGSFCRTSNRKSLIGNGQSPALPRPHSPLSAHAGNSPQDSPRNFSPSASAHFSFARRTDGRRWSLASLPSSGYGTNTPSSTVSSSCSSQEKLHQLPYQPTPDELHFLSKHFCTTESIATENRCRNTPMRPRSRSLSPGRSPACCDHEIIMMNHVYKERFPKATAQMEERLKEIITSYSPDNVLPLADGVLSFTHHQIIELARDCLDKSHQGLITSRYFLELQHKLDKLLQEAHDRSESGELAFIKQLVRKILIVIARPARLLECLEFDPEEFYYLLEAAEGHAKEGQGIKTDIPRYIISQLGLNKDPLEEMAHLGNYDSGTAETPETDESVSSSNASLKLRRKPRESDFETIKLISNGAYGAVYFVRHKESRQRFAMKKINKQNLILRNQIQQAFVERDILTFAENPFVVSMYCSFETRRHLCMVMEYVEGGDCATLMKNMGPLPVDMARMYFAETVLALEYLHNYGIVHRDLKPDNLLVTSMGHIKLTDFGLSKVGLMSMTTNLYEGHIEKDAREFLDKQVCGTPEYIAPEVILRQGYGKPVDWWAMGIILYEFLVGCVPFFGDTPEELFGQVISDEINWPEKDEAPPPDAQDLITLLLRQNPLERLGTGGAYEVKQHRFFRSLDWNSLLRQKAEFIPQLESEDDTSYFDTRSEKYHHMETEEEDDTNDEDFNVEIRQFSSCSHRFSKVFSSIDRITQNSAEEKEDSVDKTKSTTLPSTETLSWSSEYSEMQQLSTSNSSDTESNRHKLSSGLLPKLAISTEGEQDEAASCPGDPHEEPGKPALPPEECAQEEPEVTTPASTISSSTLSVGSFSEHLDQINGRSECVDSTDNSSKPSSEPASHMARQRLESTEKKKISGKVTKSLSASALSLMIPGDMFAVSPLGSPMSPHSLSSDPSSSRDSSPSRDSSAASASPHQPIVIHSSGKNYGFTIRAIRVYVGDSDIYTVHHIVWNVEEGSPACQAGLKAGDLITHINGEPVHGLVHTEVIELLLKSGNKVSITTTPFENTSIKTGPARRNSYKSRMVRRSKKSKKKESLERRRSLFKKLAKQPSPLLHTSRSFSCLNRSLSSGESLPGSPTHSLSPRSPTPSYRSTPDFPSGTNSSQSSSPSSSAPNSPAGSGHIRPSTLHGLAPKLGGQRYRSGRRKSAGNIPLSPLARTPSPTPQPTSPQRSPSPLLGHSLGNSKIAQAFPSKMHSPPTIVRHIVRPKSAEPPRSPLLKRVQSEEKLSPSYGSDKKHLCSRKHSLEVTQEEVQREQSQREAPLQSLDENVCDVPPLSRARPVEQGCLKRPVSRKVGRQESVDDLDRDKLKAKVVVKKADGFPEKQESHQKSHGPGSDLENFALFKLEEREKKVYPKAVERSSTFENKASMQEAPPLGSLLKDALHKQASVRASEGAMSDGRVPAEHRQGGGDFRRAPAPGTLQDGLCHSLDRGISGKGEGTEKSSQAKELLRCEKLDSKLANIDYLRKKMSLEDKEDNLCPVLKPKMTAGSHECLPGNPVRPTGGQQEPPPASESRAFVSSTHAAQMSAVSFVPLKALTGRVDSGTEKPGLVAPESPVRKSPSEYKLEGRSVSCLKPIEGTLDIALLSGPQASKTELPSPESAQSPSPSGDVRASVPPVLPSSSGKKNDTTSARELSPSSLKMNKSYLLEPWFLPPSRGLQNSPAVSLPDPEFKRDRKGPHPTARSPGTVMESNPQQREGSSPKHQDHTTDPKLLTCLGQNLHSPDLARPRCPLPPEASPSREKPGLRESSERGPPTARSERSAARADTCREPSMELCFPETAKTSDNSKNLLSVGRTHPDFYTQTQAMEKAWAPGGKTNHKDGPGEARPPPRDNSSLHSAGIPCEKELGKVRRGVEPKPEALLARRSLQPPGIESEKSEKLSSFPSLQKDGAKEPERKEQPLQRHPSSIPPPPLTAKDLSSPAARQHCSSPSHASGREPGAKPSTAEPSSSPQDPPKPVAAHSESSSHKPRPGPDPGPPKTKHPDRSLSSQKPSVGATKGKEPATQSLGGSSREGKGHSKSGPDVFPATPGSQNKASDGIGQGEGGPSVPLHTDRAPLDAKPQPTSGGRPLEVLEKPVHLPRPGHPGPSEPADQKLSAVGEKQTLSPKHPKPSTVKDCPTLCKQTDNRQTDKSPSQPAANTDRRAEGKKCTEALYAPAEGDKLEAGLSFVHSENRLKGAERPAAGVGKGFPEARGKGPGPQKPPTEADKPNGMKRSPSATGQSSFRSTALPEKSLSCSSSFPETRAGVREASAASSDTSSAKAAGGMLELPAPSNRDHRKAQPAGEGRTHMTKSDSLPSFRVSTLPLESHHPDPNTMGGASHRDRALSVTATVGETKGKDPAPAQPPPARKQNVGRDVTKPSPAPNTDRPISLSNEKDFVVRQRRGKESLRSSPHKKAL
# Mitogen-activated protein kinase 9, sequence (P45984 whole entry): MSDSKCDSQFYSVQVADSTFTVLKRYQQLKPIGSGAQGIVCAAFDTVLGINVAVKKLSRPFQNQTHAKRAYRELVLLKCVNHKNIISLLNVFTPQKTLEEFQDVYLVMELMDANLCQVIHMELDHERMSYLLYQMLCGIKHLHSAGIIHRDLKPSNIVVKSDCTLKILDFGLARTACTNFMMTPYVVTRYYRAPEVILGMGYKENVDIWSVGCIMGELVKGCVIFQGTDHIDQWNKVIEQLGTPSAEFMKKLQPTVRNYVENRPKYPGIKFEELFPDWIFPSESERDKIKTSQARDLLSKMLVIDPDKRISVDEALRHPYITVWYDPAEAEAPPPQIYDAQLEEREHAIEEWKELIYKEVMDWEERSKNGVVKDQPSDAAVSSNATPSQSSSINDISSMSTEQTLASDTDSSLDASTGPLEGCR
Compound,inhibition [1],inhibition [2],inhibition [3],inhibition [4],inhibition [5],IC50 [6],inhibition [7],IC50 [8],inhibition [9]
c1ccc(CCNc2nc3ccccc3n3ccnc23)cc1,< 35%,< 35%,41.6%,,,,,,
O=C(N[C@H](CO)c1ccccc1)c1ccc2nc(N[C@H]3CC[C@H](O)CC3)c3nccn3c2c1,,,,> 88%,< 35%,0.135 µM,97.2%,0.29 µM,< 35%
CC(C)(NC(=O)c1ccc2nc(N[C@H]3CC[C@H](O)CC3)c3nccn3c2c1)c1ccccc1,,,,,< 35%,,,,< 35%
O=C(NC1(Cc2ccc(F)cc2)CC1)c1ccc2nc(N[C@H]3CC[C@H](O)CC3)c3nccn3c2c1,,,,,< 35%,0.12 µM,,,< 35%
O=C(O)c1ccc2nc(N[C@H]3CC[C@H](O)CC3)c3nccn3c2c1,,,,,< 35%,,,,< 35%
CCC[C@@H](NC(=O)c1ccc2nc(N[C@H]3CC[C@H](O)CC3)c3nccn3c2c1)c1ccccc1,,,,75.6%,< 35%,,80.6%,2.4 µM,< 35%
C[C@H](NC(=O)c1ccc2nc(N[C@H]3CC[C@H](O)CC3)c3nccn3c2c1)c1ccccc1,,,,,< 35%,,,,< 35%
O=C(NC1(c2ccccc2)CC1)c1ccc2nc(N[C@H]3CC[C@H](O)CC3)c3nccn3c2c1,,,,> 88%,< 35%,,97.7%,0.24 µM,< 35%
c1ccc(CNc2nc3ccccc3n3ccnc23)cc1,< 35%,< 35%,46.2%,,,,,,
O=C(NC1(c2ccccc2)CCC1)c1ccc2nc(N[C@H]3CC[C@H](O)CC3)c3nccn3c2c1,,,,,< 35%,,,,< 35%
C[C@@H](NC(=O)c1ccc2nc(N[C@H]3CC[C@H](O)CC3)c3nccn3c2c1)c1ccccc1,,,,76.1%,< 35%,,90.8%,1.01 µM,< 35%
O=C(NC1(c2ccc(F)cc2)CC1)c1ccc2nc(N[C@H]3CC[C@H](O)CC3)c3nccn3c2c1,,,,78.7%,< 35%,,93.1%,0.74 µM,< 35%
NC(=O)c1ccc2nc(N[C@H]3CC[C@H](O)CC3)c3nccn3c2c1,,,,,< 35%,,,,< 35%
CC[C@@H](NC(=O)c1ccc2nc(N[C@H]3CC[C@H](O)CC3)c3nccn3c2c1)c1ccccc1,,,,79.8%,< 35%,0.1 µM,87.5%,1.4 µM,< 35%
c1ccc2c(c1)nc(NC1CCCCC1)c1nccn12,< 35%,< 35%,80.4%,,,,,,
O[C@H]1CC[C@H](Nc2nc3ccccc3n3ccnc23)CC1,37%,65%,97.5%,,,,,,
